Results from US11028090B2 (Dong Wha Pharm. Co., Ltd., priority 2017, dated 2021).
Read-outs that look alike come from different tables or passages of the source.

Key:
[1] = target: BRD4 (BD1+BD2) bromodomain (Homo sapiens (Human), UniProt O60885); assay: BRD4 binding inhibition (AlphaScreen, GST-BRD4 vs tetraacetylated histone H4 peptide)
Outline: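 GST-BRD4 (BD1+BD2) and biotinylated tetraacetyl-histone H4 peptide, each at 100 nM in HEPES pH 7.4 buffer with BSA and DTT, were combined with compound. Glutathione acceptor and streptavidin donor beads were added, then incubated 30 min at room temperature in the dark. Read-out was AlphaScreen signal.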

[2] = tested on: thymus cancer cells (Ty-82 cells); assay: Cytotoxicity to thymus cancer cells (Ty-82 cells), WST-1; conditions: Homo sapiens, TY82, 72 h
Experimental: The following experiment was performed to evaluate the cytotoxicity of [1,2,4]triazolo[4,3-a]quinoxaline derivative according to the present invention to thymus cancer cells (Ty-82 cells).
First, thymus cancer cells (Ty-82 cells) were distributed in a 96 well plate at the density of 2.5×10^4 cells/well. 24 hours later, the plated cells were treated with the compounds of the present invention dissolved in DMSO at the different concentrations ranging from 0.01 μM to 10 μM. 72 hours later, the activities of the compounds were determined using WST-1 reagent.

[3] = tested on: acute myelogenous leukemia cells (MV-4-11 cells); assay: Cytotoxicity to acute myelogenous leukemia cells (MV-4-11 cells), CCK-8
[4] = GST-BRD4 (BD1+BD2) / biotinylated acetyl-histone H4 (Lys5,8,12,16) peptide, read-out: IC50, BRD4 binding inhibition
[5] = GST-BRD4 (BD1+BD2) vs biotinylated acetyl-histone H4 peptide, AlphaScreen, read-out: BRD4 IC50
[6] = read-out: Ty-82 Cytotoxicity IC50
[7] = Homo sapiens, MV4-11, 72 h, read-out: IC50, cytotoxicity against acute myelogenous leukemia cells
[8] = Homo sapiens, MV4-11, 72 h, read-out: MV-4-11 Cytotoxicity IC50

How did the IC50 [1, 4] turn out when `Cc1nnc2c(NCCCCNC(=O)C(C)(C)C)nc3ccccc3n12` [Example 3, 2,2-dimethyl-N-[4-(1-methyl-[1,2,4]triazolo[4,3-a]quinoxaline-4-ylamino)-butyl]-propionamide] was run?
The IC50 was at most 50 nM.

And the IC50 [1, 5]?
Its IC50 is 28 nM.

And the IC50 [2, 6]?
Its IC50 is 920 nM.

`Cc1nnc2c(NCCCCNC(=O)OC(C)C)nc3ccccc3n12` [Example 4, [4-(1-methyl-[1,2,4]triazolo[4,3-a]quinoxaline-4-ylamino)-butyl]-carbamic acid isopropylester] was tested. Which IC50 [1, 4] did it give?
The IC50 was at most 50 nM.

What about the IC50 [2, 6] of the same compound?
Its IC50 is 650 nM.

What does the source list for `Cc1nnc2c(NCCCCNC(=O)CC(C)C)nc3ccccc3n12` [Example 7, 3-methyl-N-[4-(1-methyl-[1,2,4]triazolo[4,3-a]quinoxaline-4-ylamino)-butyl]-butyramide]?
IC50 [1, 4]: ≤ 50 nM; IC50 [1, 5]: 20 nM; IC50 ([2]; read-out: IC50, cytotoxicity against thymus cancer cells): ≤ 500 nM; IC50 [2, 6]: 260 nM

`Cc1nnc2c(NCCCCNC(=O)CC(C)(C)C)nc3ccccc3n12` [Example 8, 3,3-dimethyl-N-[4-(1-methyl-[1,2,4]triazolo[4,3-a]quinoxaline-4-ylamino)-butyl]-butyramide] was tested. Which IC50 [1, 4] did it give?
Its IC50 is at most 50 nM.

And the IC50 [1, 5]?
Its IC50 is 24 nM.

And the IC50 [2, 6]?
Its IC50 is 860 nM.

`Cc1nnc2c(NCCCCNC(=O)c3ccccc3Cl)nc3ccccc3n12` [Example 12] was tested. Which IC50 [1, 5] did it give?
Its IC50 is 58 nM.

And the IC50 [2, 6]?
The IC50 was 850 nM.

How did the IC50 [1, 5] turn out when `COc1cc2nc(NCCCCNC(=O)c3ccc([N+](=O)[O-])cc3)c3nnc(C)n3c2cc1OC` [Example 101, N-[4-(7,8-dimethoxy-1-methyl-[1,2,4]triazolo[4,3-a]quinoxaline-4-ylamino)-butyl]-4-nitro-benzamide] was run?
Its IC50 is 51 nM.

And the IC50 [2, 6]?
Its IC50 is 880 nM.

`COc1cc2nc(NCCCCNC(=O)CC(C)C)c3nnc(C)n3c2cc1OCCN1CCOCC1` [Example 576, N-{4-[7-methoxy-1-methyl-8-(2-morpholine-4-yl-ethoxy)-[1,2,4]triazolo[4,3-a]quinoxaline-4-ylamino]-butyl}-3-methyl butyramide] was tested. Which IC50 [1, 5] did it give?
Its IC50 is 52 nM.

What about the IC50 [3, 7] of the same compound?
Its IC50 is at most 200 nM.

What about the IC50 [3, 8] of the same compound?
Its IC50 is 86 nM.

With `Cc1noc(C)c1-c1ccc2c(c1)nc(NCCCCNC(=O)CC(C)C)c1nnc(C)n12` [Example 585, N-{4-[7-(3,5-dimethyl-isoxazol-4-yl)-1-methyl-[1,2,4]triazolo[4,3-a]quinoxaline-4-ylamino]-butyl}-3-methyl-butyramide] as the compound, how does the IC50 [1, 4] read?
The IC50 was at most 10 nM.

And the IC50 [1, 5]?
Its IC50 is 5 nM.

What about the IC50 [3, 8] of the same compound?
Its IC50 is 280 nM.

Which results are given for `COc1ccc2c(c1)nc(NCCCCNC(=O)CC(C)C)c1nnc(C(F)(F)F)n12` [Example 590, N-[4-(7-methoxy-1-trifluoromethyl-[1,2,4]triazolo[4,3-a]quinoxaline-4-ylamino)-butyl]-3-methyl-butyramide]?
IC50 [1, 4]: ≤ 50 nM; IC50 [1, 5]: 29 nM; IC50 [3, 8]: 490 nM

What does the source list for `CCC(C)CC(=O)NCCCCNc1nc2cc(OC)ccc2n2c(C(F)(F)F)nnc12` (stereo not drawn) [Example 591, 3-methyl-pentanoic acid-[4-(7-methoxy-1-trifluoromethyl-[1,2,4]triazolo[4,3-a]quinoxaline-4-ylamino)-butyl]-amide]?
IC50 [1, 4]: ≤ 50 nM; IC50 [1, 5]: 28 nM; IC50 [3, 8]: 880 nM

With `CCc1nnc2c(NCCCCNC(=O)OC(C)(C)C)nc3cc(OC)c(OC)cc3n12` [Example 594, [4-(1-ethyl-7,8-dimethoxy-[1,2,4]triazolo[4,3-a]quinoxaline-4-ylamino)-butyl]-carbamic acid-tert-butylester] as the compound, how does the IC50 [1, 5] read?
Its IC50 is 76 nM.

What about the IC50 [3, 8] of the same compound?
Its IC50 is 880 nM.

For `CCc1nnc2c(NCCCCNC(=O)OC(C)C)nc3cc(OC)c(OC)cc3n12` [Example 596, [4-(1-ethyl-7,8-dimethoxy-[1,2,4]triazolo[4,3-a]quinoxaline-4-ylamino)-butyl]-carbamic acid isopropylester], which IC50 [1, 4] is on record?
Its IC50 is at most 50 nM.

What about the IC50 [1, 5] of the same compound?
The IC50 was 19 nM.

What about the IC50 [3, 8] of the same compound?
The IC50 was 510 nM.

Which IC50 [1, 4] does the source give for `CCc1nnc2c(NCCCCNC(=O)CC(C)C)nc3cc(OC)c(OC)cc3n12` [Example 597, N-[4-(1-ethyl-7,8-dimethoxy-[1,2,4]triazolo[4,3-a]quinoxaline-4-ylamino)-butyl]-3-methyl-butyramide] here?
Its IC50 is at most 50 nM.

What about the IC50 [1, 5] of the same compound?
Its IC50 is 18 nM.

And the IC50 [3, 8]?
The IC50 was 230 nM.

`CCc1nnc2c(NCCCCNC(=O)OCC(C)C)nc3cc(OC)c(OC)cc3n12` [Example 598, [4-(1-ethyl-7,8-dimethoxy-[1,2,4]triazolo[4,3-a]quinoxaline-4-ylamino)-butyl]-carbamic acid isobutylester] was tested. Which IC50 [1, 4] did it give?
The IC50 was at most 50 nM.

And the IC50 [1, 5]?
Its IC50 is 18 nM.

What about the IC50 [3, 8] of the same compound?
Its IC50 is 290 nM.

What does the source list for `COc1cc2nc(NCCCCNC(=O)OC(C)C)c3nnc(C(C)C)n3c2cc1OC` [Example 601, [4-(1-isopropyl-7,8-dimethoxy-[1,2,4]triazolo[4,3-a]quinoxaline-4-ylamino)-butyl]-carbamic acid isopropylester]?
IC50 [1, 5]: 56 nM; IC50 [3, 8]: 230 nM

With `COc1cc2nc(NCCCCNC(=O)OCC(C)C)c3nnc(C(C)C)n3c2cc1OC` [Example 602, [4-(1-isopropyl-7,8-dimethoxy-[1,2,4]triazolo[4,3-a]quinoxaline-4-ylamino)-butyl]-carbamic acid isobutylester] as the compound, how does the IC50 [1, 5] read?
Its IC50 is 58 nM.

And the IC50 [3, 8]?
The IC50 was 290 nM.

For `CCc1nnc2c(NCCCCNC(=O)OC(C)(C)C)nc3cc(OC)ccc3n12` [Example 620, [4-(7-methoxy-1-ethyl-[1,2,4]triazolo[4,3-a]quinoxaline-4-ylamino)-butyl]-carbamic acid-tert-butylester], which IC50 [1, 4] is on record?
Its IC50 is at most 50 nM.

What about the IC50 [1, 5] of the same compound?
Its IC50 is 16 nM.

What about the IC50 [3, 8] of the same compound?
The IC50 was 700 nM.

With `CCc1nnc2c(NCCCCNC(=O)OC(C)C)nc3cc(OC)ccc3n12` [Example 623, [4-(7-methoxy-1-ethyl-[1,2,4]triazolo[4,3-a]quinoxaline-4-ylamino)-butyl]-carbamic acid isopropylester] as the compound, how does the IC50 [1, 4] read?
The IC50 was at most 50 nM.

And the IC50 [1, 5]?
The IC50 was 5 nM.

And the IC50 [3, 8]?
The IC50 was 400 nM.

With `CCc1nnc2c(NCCCCNC(=O)OCC(C)C)nc3cc(OC)ccc3n12` [Example 624, [4-(7-methoxy-1-ethyl-[l,2,4]triazolo[4,3-a]quinoxaline-4-ylamino)-butyl]-carbamic acid isobutylester] as the compound, how does the IC50 [1, 4] read?
The IC50 was at most 50 nM.

And the IC50 [1, 5]?
The IC50 was 16 nM.

And the IC50 [3, 8]?
The IC50 was 410 nM.

What does the source list for `COc1cc2nc(NCCCCC(=O)NCC(C)C)c3nnc(C)n3c2cc1OC` [Example 648, 5-(7,8-dimethoxy-1-methyl-[1,2,4]triazolo[4,3-a]quinoxaline-4-ylamino)-pentanoic acid-isobutylamide]?
IC50 [1, 4]: ≤ 50 nM; IC50 [1, 5]: 27 nM; IC50 [3, 7]: ≤ 200 nM; IC50 [3, 8]: 130 nM

Which results are given for `CCC(C)CNC(=O)CCCCNc1nc2cc(OC)c(OC)cc2n2c(C)nnc12` (stereo not drawn) [Example 649, 5-(7,8-dimethoxy-1-methyl-[1,2,4]triazolo[4,3-a]quinoxaline-4-ylamino)-pentanoic acid-(2-methyl-butyl)-amide]?
IC50 [1, 4]: ≤ 50 nM; IC50 [1, 5]: 23 nM; IC50 [3, 7]: ≤ 200 nM; IC50 [3, 8]: 160 nM

What does the source list for `COc1cc2nc(NCCCCC(=O)NCc3ccco3)c3nnc(C)n3c2cc1OC` [Example 650, 5-(7,8-dimethoxy-1-methyl-[1,2,4]triazolo[4,3-a]quinoxaline-4-ylamino)-pentanoic acid-(furan-2-ylmethyl)-amide]?
IC50 [1, 4]: ≤ 50 nM; IC50 [1, 5]: 18 nM; IC50 [3, 8]: 220 nM

Which IC50 [1, 4] does the source give for `COc1cc2nc(NCCCCC(=O)NCc3ccccc3)c3nnc(C)n3c2cc1OC` [Example 651, 5-(7,8-dimethoxy-1-methyl-[1,2,4]triazolo[4,3-a]quinoxaline-4-ylamino)-pentanoic acid-benzylamide] here?
Its IC50 is at most 50 nM.

What about the IC50 [1, 5] of the same compound?
The IC50 was 23 nM.

And the IC50 [3, 7]?
The IC50 was at most 200 nM.

What about the IC50 [3, 8] of the same compound?
The IC50 was 120 nM.

How did the IC50 [1, 4] turn out when `COc1cc2nc(NCCCCC(=O)NCc3ccc[nH]3)c3nnc(C)n3c2cc1OC` [Example 652, 5-(7,8-dimethoxy-1-methyl-[1,2,4]triazolo[4,3-a]quinoxaline-4-ylamino)-pentanoic acid-(1H-pyrrole-2-ylmethyl)-amide] was run?
The IC50 was at most 50 nM.

What about the IC50 [1, 5] of the same compound?
Its IC50 is 27 nM.

What about the IC50 [3, 7] of the same compound?
The IC50 was at most 200 nM.

And the IC50 [3, 8]?
The IC50 was 200 nM.

Which results are given for `COc1ccc2c(c1)nc(NCCCCC(=O)NC(C)C)c1nnc(C)n12` [Example 654, 5-(7-methoxy-1-methyl-[1,2,4]triazolo[4,3-a]quinoxaline-4-ylamino)-pentanoic acid isopropylamide]?
IC50 [1, 4]: ≤ 50 nM; IC50 [1, 5]: 11 nM; IC50 [3, 8]: 270 nM

How did the IC50 [1, 4] turn out when `COc1ccc2c(c1)nc(NCCCCC(=O)NCC(C)C)c1nnc(C)n12` [Example 655, 5-(7-methoxy-1-methyl-[1,2,4]triazolo[4,3-a]quinoxaline-4-ylamino)-pentanoic acid isobutylamide] was run?
The IC50 was at most 50 nM.

And the IC50 [1, 5]?
The IC50 was 11 nM.

What about the IC50 [3, 7] of the same compound?
Its IC50 is at most 200 nM.

And the IC50 [3, 8]?
The IC50 was 80 nM.

Which IC50 [1, 4] does the source give for `CCC(C)CNC(=O)CCCCNc1nc2cc(OC)ccc2n2c(C)nnc12` (stereo not drawn) [Example 656, 5-(7-methoxy-1-methyl-[1,2,4]triazolo[4,3-a]quinoxaline-4-ylamino)-pentanoic acid-(2-methyl-butyl)-amide] here?
Its IC50 is at most 50 nM.

And the IC50 [1, 5]?
Its IC50 is 12 nM.

And the IC50 [3, 7]?
Its IC50 is at most 200 nM.

And the IC50 [3, 8]?
Its IC50 is 150 nM.

Which IC50 [1, 4] does the source give for `COc1ccc2c(c1)nc(NCCCCC(=O)NCc1ccco1)c1nnc(C)n12` [Example 657] here?
The IC50 was at most 50 nM.

And the IC50 [1, 5]?
Its IC50 is 16 nM.

What about the IC50 [3, 7] of the same compound?
The IC50 was at most 200 nM.

And the IC50 [3, 8]?
The IC50 was 80 nM.

For “benzoic acid 1-methyl-4-[4-(3-methyl-butylamino)-butylamino]-[1,2,4]triazolo[4,3-a]quinoxaline-7-yl ester [Example 350]”, which IC50 [1, 4] is on record?
Its IC50 is at most 50 nM.

And the IC50 [1, 5]?
Its IC50 is 33 nM.

And the IC50 ([3]; read-out: IC50, cytotoxicity against acute myelogenous leukemia cells, MV-4-11 cells, 72 hours, CCK-8)?
The IC50 was at most 200 nM.

What about the IC50 ([3]; read-out: MV-4-11 Cytotoxicity IC50, MV-4-11 cells, 72 hours, CCK-8) of the same compound?
Its IC50 is 71 nM.
